In patent US9237747B2, “Herbicidal compositions comprising 4-amino-3-chloro-5-fluoro-6-(4-chloro-2-fluoro-3-methoxyphenyl) pyridine-2-carboxylic acid or a derivative thereof and insecticides” (priority 2013, dated 2016):
Read-outs that look alike come from different tables or passages of the source.

Key:
[1] = test system: CYPIR; assay type: in vivo, Cyperus iria; conditions: 480 g ai/ha alone
Excerpt: (§1) Seeds or nutlets of the desired test plant species were planted in a soil matrix prepared by mixing a loam or sandy loam soil (e.g., 28.6 percent silt, 18.8 percent clay, and 52.6 percent sand, with a pH of about 5.8 and an organic matter content of about 1.8 percent) and calcareous grit in an 80 to 20 ratio. The soil matrix was contained in plastic pots with a volume of 1 quart and a surface area of 83.6 square centimeters (cm^2). When required to ensure good germination and healthy plants, a fungicide treatment and/or other chemical or physical treatment was applied. The plants were grown for 8-22 days in a greenhouse with an approximate 14 hour (h) photoperiod which was maintained at about 29° C. during the day and 26° C. during the night. Nutrients (Peters Excel® 15-5-15 5-Ca 2-Mg and iron chelate) were applied in the irrigation solution as needed and water was added on a regular basis. Supplemental lighting was provided with overhead metal halide 1000-Watt lamps as necessary. The plants were employed for testing when they reached the first through fourth true leaf stage.
(§2) Treatments consisted of the acid or esters of 4-amino-3-chloro-6-(4-chloro-2-fluoro-3-methoxyphenyl)-5-fluoropyridine-2-carboxylic acid (Compound A), each formulated as an SC (suspension concentrate), and various insecticidal components alone and in combination. Forms of compound A were applied on an acid equivalent basis.
(§3) Treatment requirements were calculated based upon the rates being tested, the concentration of active ingredient or acid equivalent in the formulation, and a 12 milliliter (mL) application volume at a rate of 187 liters per hectare (L/ha).
(§4) For treatments comprised of formulated compounds, measured amounts of compounds were placed individually in 25 mL glass vials and diluted in a volume of 1.25% volume per volume (v/v) Agri-Dex® crop oil concentrate to obtain 12× stock solutions. […] Application solutions were prepared by adding an appropriate amount of each stock solution (e.g., 1 mL) and diluted to the appropriate final concentrations with the addition of […] of an aqueous mixture of 1.25% (v/v) crop oil concentrate so that the final spray solutions contained 1.25+/−0.05% (v/v) crop oil concentrate.
(§5) As required, additional water and/or 97:3 v/v acetone/DMSO was added to individual application solutions so that the final acetone and DMSO concentrations of the application solutions being compared were 8.1% and 0.25%, respectively.
(§6) All stock solutions and applications solutions were visually inspected for compound compatibility prior to application. Spray solutions were applied to the plant material with an overhead Mandel track sprayer equipped with 8002E nozzles calibrated to deliver 187 L/ha over an application area of 0.503 square meters (m^2) at a spray height of 18 to 20 inches (46 to 50 cm) above average plant canopy height. Control plants were sprayed in the same manner with the solvent blank.
(§7) The treated plants and control plants were placed in a greenhouse as described above and watered by sub-irrigation to prevent wash-off of the test compounds. After approximately 3 weeks, the condition of the test plants as compared to that of the untreated plants was determined visually and scored on a scale of 0 to 100 percent where 0 corresponds to no injury or growth inhibition and 100 corresponds to complete kill.
(§8) Colby's equation was used to determine the herbicidal effects expected from the mixtures (Colby, S. R. Calculation of the synergistic and antagonistic response of herbicide combinations. Weeds 1967, 15, 20-22.).
(§9) The following equation was used to calculate the expected activity of mixtures containing two active ingredients, A and B: Expected=A+B−(A×B/100)

[2] = test system: ECHCO; assay: Postemergence foliar-applied weed control, direct-seeded rice (greenhouse); assay type: in vivo, Echinochloa colonum
Experimental: as §1, with “When required to ensure good germination and healthy plants, a fungicide treatment and/or other chemical or physical treatment was applied.” left out
as §2, §4, §5, §6, §7, §8, §9

[3] = test system: LEFCH; assay: whole plant or invertebrate; assay type: in vivo, Leptochloa chinensis
Experimental: as §1, with “When required to ensure good germination and healthy plants, a fungicide treatment and/or other chemical or physical treatment was applied.” left out
as §2, §4, §5, §6, §7, §8, §9

[4] = test system: SCPJU; assay: Postemergence foliar-applied weed control, direct-seeded rice (greenhouse); assay type: in vivo, Schoenoplectus juncoides; conditions: 480 g ai/ha alone
Excerpt: as §1, with “Supplemental lighting was provided with overhead metal halide 1000-Watt lamps as necessary. The plants were employed for testing when they reached the first through fourth true leaf stage.” left out
as §3
For treatments comprised of formulated compounds, measured amounts of compounds were placed individually in 25 mL glass vials and diluted in a volume of 1.25% volume per volume (v/v) Agri-Dex® crop oil concentrate to obtain 12× stock solutions. […]

[5] = test system: CYPES; assay type: in vivo, Cyperus esculentus
Experimental: as §1, with “When required to ensure good germination and healthy plants, a fungicide treatment and/or other chemical or physical treatment was applied.” left out
as §2, §4, §5, §6, §7, §8, §9

[6] = test system: ECHCG; assay type: in vivo, Echinochloa crus-galli
Experimental: as §1, with “When required to ensure good germination and healthy plants, a fungicide treatment and/or other chemical or physical treatment was applied.” left out
as §2, §4, §5, §6, §7, §8, §9

[7] = test system: IPOHE; assay type: in vivo, Ipomoea hederacea
Experimental: as §1, with “When required to ensure good germination and healthy plants, a fungicide treatment and/or other chemical or physical treatment was applied.” left out
as §2, §4, §5, §6, §7, §8, §9

[8] = test system: CYPRO; assay: In-water applied weed control, transplanted paddy rice (greenhouse); assay type: in vivo, Cyperus rotundus; conditions: 21 DAA
Experimental: (§10) Weed seeds or nutlets of the desired test plant species were planted in puddled soil (mud) prepared by mixing a shredded, non-sterilized mineral soil (50.5 percent silt, 25.5 percent clay, and 24 percent sand, with a pH of about 7.6 and an organic matter content of about 2.9 percent) and water at a 1:1 volumetric ratio. The prepared mud was dispensed in 365 mL aliquots into 16-ounce (oz.) non-perforated plastic pots with a surface area of 86.59 square centimeters (cm^2) leaving a headspace of 3 centimeters (cm) in each pot. Rice seeds were planted in Sun Gro MetroMix® 306 planting mixture, which typically has a pH of 6.0 to 6.8 and an organic matter content of about 30 percent, in plastic plug trays. Seedlings at the second or third leaf stage of growth were transplanted into 860 mL of mud contained in 32-oz. non-perforated plastic pots with a surface area of 86.59 cm^2 4 days prior to herbicide application. The paddy was created by filling the headspace of the pots with 2.5 to 3 cm of water. When required to ensure good germination and healthy plants, a fungicide treatment and/or other chemical or physical treatment was applied. The plants were grown for 4-22 days in a greenhouse with an approximate 14 h photoperiod which was maintained at about 29° C. during the day and about 26° C. during the night. Nutrients were added as Osmocote® (17:6:10, N:P:K+minor nutrients) at 2 grams (g) per 16-oz. pot and 4 g per 32-oz. pot. Water was added on a regular basis to maintain the paddy flood, and supplemental lighting was provided with overhead metal halide 1000-Watt lamps as necessary. The plants were employed for testing when they reached the first through fourth true leaf stage.
Treatments consisted of the acid or esters of 4-amino-3-chloro-5-fluoro-6-(4-chloro-2-fluoro-3-methoxy-phenyl)pyridine-2-carboxylic acid (compound A) each formulated as an SC (suspension concentrate) and various herbicidal components alone and in combination. Forms of compound A were applied on an acid equivalent basis.
Other […] components were applied on an active ingredient basis and consisted of etofenprox (technical grade material) and sulfoxaflor formulated as Sulfoxaflor WG.
(§11) Treatment requirements for each compound or herbicidal component were calculated based upon the rates being tested, the concentration of active ingredient or acid equivalent in the formulation, an application volume of 2 mL per component per pot, and an application area of 86.59 cm^2 per pot.
For formulated compounds, a measured amount was placed in an individual 100 or 200 mL glass vial and was dissolved in a volume of 1.25% (v/v) AgriDex® crop oil concentrate to obtain application solutions.
For technical grade compounds, a weighed amount was placed in an individual 100 to 200 mL glass vial and was dissolved in a volume of acetone to obtain concentrated stock solutions.
Applications were made by injecting with a pipetter appropriate amounts of the application solutions, individually and sequentially, into the aqueous layer of the paddy. Control plants were treated in the same manner with the solvent blank. Applications were made so that all treated plant material received the same concentrations of acetone and crop oil concentrate.
The treated plants and control plants were placed in a greenhouse as described above and water was added as needed to maintain a paddy flood. After approximately 3 weeks the condition of the test plants as compared with that of the untreated plants was determined visually and scored on a scale of 0 to 100 percent where 0 corresponds to no injury or growth inhibition and 100 corresponds to complete kill.
Colby's equation was used to determine the herbicidal effects expected from the mixtures (Colby, S. R. Calculation of the synergistic and antagonistic response of herbicide combinations. Weeds 1967, 15, 20-22.). […]

[9] = test system: ECHCG; assay: as above; assay type: in vivo, Echinochloa crus-galli
Experimental: as §10, with “stage. […]” for “stage.”
as §11
For formulated compounds, a measured amount was placed in an individual 100 or 200 mL glass vial and was dissolved in a volume of 1.25% (v/v) AgriDex® crop oil concentrate to obtain application solutions. […]
The treated plants and control plants were placed in a greenhouse as described above and water was added as needed to maintain a paddy flood. After approximately 3 weeks the condition of the test plants as compared with that of the untreated plants was determined visually and scored on a scale of 0 to 100 percent where 0 corresponds to no injury or growth inhibition and 100 corresponds to complete kill. […]

Row | Compound | Visual Weed Control (%) - 22 DAA CYPIR Obs [1] | Visual Weed Control (%) - 22 DAA ECHCO Obs ([2]; 480 g ai/ha alone) | pest or weed control at 480 g/ha ([3]; Dinebra chinensis, post-emergence, 528 h, read-out: Visual Weed Control (%) - 22 DAA LEFCH Obs) | Visual Weed Control (%) - 22 DAA SCPJU Obs [4] | Visual Weed Control (%) - 22 DAA CYPES Obs ([5]; 75 g ai/ha alone) | Visual Weed Control (%) - 22 DAA CYPES Obs ([5]; 150 g ai/ha alone) | Visual Weed Control (%) - 22 DAA ECHCG Obs ([6]; 75 g ai/ha alone) | Visual Weed Control (%) - 22 DAA ECHCG Obs ([6]; 150 g ai/ha alone) | Visual Weed Control (%) - 19 DAA ECHCG Obs ([6]; 300 g ai/ha alone) | Visual Weed Control (%) - 19 DAA ECHCO Obs ([2]; 300 g ai/ha alone) | Visual Weed Control (%) - 22 DAA IPOHE Obs ([7]; 75 g ai/ha alone) | Visual Weed Control (%) - 22 DAA IPOHE Obs ([7]; 150 g ai/ha alone) | Visual Weed Control (%) - 19 DAA LEFCH Obs ([3]; 300 g ai/ha alone) | pest or weed control at 150 g/ha ([3]; Dinebra chinensis, post-emergence, 528 h, 150 g ai/ha alone, read-out: Visual Weed Control (%) - 22 DAA LEFCH Obs) | Visual Weed Control (%) - 21 DAA CYPRO Obs ([8]; 75 g ai/ha alone) | Visual Weed Control (%) - 21 DAA CYPRO Obs ([8]; 150 g ai/ha alone) | Visual Weed Control (%) - 21 DAA CYPRO Obs ([8]; 300 g ai/ha alone) | Visual Weed Control (%) - 21 DAA ECHCG Obs ([9]; 75 g ai/ha alone) | Visual Weed Control (%) - 21 DAA ECHCG Obs ([9]; 150 g ai/ha alone) | Visual Weed Control (%) - 21 DAA ECHCG Obs ([9]; 300 g ai/ha alone)
1 | CNC(=O)CSP(=S)(OC)OC [Dimethoate, O,O-dimethyl S-methylcarbamoylmethyl phosphorodithioate] | 0% | 10% | 0% | 0% |  |  |  |  |  |  |  |  |  |  |  |  |  |  |  | 
2 | CCOc1ccc(C(C)(C)COCc2cccc(Oc3ccccc3)c2)cc1 [Etofenprox, 2-(4-ethoxyphenyl)-2-methylpropyl 3-phenoxybenzyl ether] |  |  |  |  | 0% | 0% | 0% | 0% | 0% | 0% | 0% | 0% | 0% | 0% | 0% | 0% | 0% | 0% | 0% | 0%
